13 molecules from patent EP4562003B1, “NOVEL 7-SUBSTITUTED INDOLE SULFONAMIDE DERIVATIVES” (F. Hoffmann-La Roche AG, priority 2022, dated 2024) can be followed below.

The assay deals with human GPR17 short isoform (Homo sapiens, UniProt Q13304). Description: GPR17 cAMP assay (TR-FRET cAMP quantification, antagonist mode). The assay is classed as cell-based. The conditions noted are these: CHO-K1 cells stably expressing human GPR17 short isoform; EC80 of agonist MDL29,951; forskolin 15µM; IBMX 0.5mM; 30 minutes at room temperature; read-out: hGPR17 cAMP IC50. Put shortly: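 CHO-K1 cells stably expressing untagged human GPR17 short isoform, 10'000 cells/well in HBSS/10mM HEPES/0.1% BSA pH 7.4. Compounds added with EC80 MDL29,951 plus 0.5mM IBMX, then 15µM forskolin; 30 min at room temperature. cAMP read by TR-FRET after 90 min lysis; normalized to reference antagonist maximal activity, sigmoidal fit.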
Chain of human GPR17 short isoform (Q13304 29-367): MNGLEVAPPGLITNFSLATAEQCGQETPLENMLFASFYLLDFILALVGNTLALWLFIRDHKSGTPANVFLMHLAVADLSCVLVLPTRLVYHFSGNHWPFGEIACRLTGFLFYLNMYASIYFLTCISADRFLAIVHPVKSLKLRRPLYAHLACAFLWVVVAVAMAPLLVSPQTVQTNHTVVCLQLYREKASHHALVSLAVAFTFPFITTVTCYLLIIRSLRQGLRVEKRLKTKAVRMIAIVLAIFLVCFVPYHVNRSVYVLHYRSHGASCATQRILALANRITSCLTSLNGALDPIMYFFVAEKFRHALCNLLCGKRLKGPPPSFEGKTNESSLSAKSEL
As to `COc1nc(NS(=O)(=O)c2c[nH]c3c(-c4cnn(C)n4)c(Cl)ccc23)nc(OC)c1OCCF` [Example 109, 6-chloro-N-[5-(2-fluoroethoxy)-4,6-dimethoxy-pyrimidin-2-yl]-7-(2-methyltriazol-4-yl)-1H-indole-3-sulfonamide], the IC50 stood at 36 nM.

On to `COc1nc(NS(=O)(=O)c2c[nH]c3c(-c4nnco4)c(Cl)ccc23)nc(OC)c1OCC(F)F` [Example 110, 6-chloro-N-[5-(2,2-difluoroethoxy)-4,6-dimethoxy-pyrimidin-2-yl]-7-(1,3,4-oxadiazol-2-yl)-1H-indole-3-sulfonamide], for which the IC50 came out at 46 nM.

For `COc1nc(NS(=O)(=O)c2c[nH]c3c(-c4cnn(C)c4)c(Cl)ccc23)nc(OC)c1OCC(F)F` [Example 111, 6-chloro-N-[5-(2,2-difluoroethoxy)-4,6-dimethoxy-pyrimidin-2-yl]-7-(1-methylpyrazol-4-yl)-1H-indole-3-sulfonamide], the concentration for half-maximal inhibition (IC50) came to 53 nM.

For the molecule `COc1nc(NS(=O)(=O)c2c[nH]c3c(-c4cnn(C)c4)c(Cl)ccc23)nc(OC)c1OCCF` [Example 112, 6-chloro-N-[5-(2-fluoroethoxy)-4,6-dimethoxy-pyrimidin-2-yl]-7-(1-methylpyrazol-4-yl)-1H-indole-3-sulfonamide], the IC50 came out at 52 nM.

For the molecule `COc1nc(NS(=O)(=O)c2c[nH]c3c(-c4cnn(C)c4)c(Cl)ccc23)nc(OC)c1OC(F)F` [Example 113, 6-chloro-N-[5-(difluoromethoxy)-4,6-dimethoxy-pyrimidin-2-yl]-7-(1-methylpyrazol-4-yl)-1H-indole-3-sulfonamide], the IC50 amounted to 82 nM.

Take `COc1nc(NS(=O)(=O)c2c[nH]c3c(-c4cnn(C)c4)c(Cl)ccc23)nc(OC)c1CC(F)F` [Example 114, 6-chloro-N-[5-(2,2-difluoroethyl)-4,6-dimethoxy-pyrimidin-2-yl]-7-(1-methylpyrazol-4-yl)-1H-indole-3-sulfonamide]: the IC50 was determined as 55 nM.

As for `COc1nc(NS(=O)(=O)c2c[nH]c3c(-c4cscn4)c(Cl)ccc23)nc(OC)c1OCC(F)F` [Example 115, 6-chloro-N-[5-(2,2-difluoroethoxy)-4,6-dimethoxy-pyrimidin-2-yl]-7-thiazol-4-yl-1H-indole-3-sulfonamide], the half-maximal inhibitory concentration (IC50) stood at 40 nM.

For the molecule `COc1nc(NS(=O)(=O)c2c[nH]c3c(-c4cnco4)c(Cl)ccc23)nc(OC)c1OCC(F)F` [Example 116, 6-chloro-N-[5-(2,2-difluoroethoxy)-4,6-dimethoxy-pyrimidin-2-yl]-7-oxazol-5-yl-1H-indole-3-sulfonamide], the IC50 was 59 nM.

For the molecule `COc1nc(NS(=O)(=O)c2c[nH]c3c(-c4cnco4)c(Cl)ccc23)nc(OC)c1OC(F)F` [Example 117, 6-chloro-N-[5-(difluoromethoxy)-4,6-dimethoxy-pyrimidin-2-yl]-7-oxazol-5-yl-1H-indole-3-sulfonamide], the IC50 came out at 106 nM.

In the case of `COc1nc(NS(=O)(=O)c2c[nH]c3c(-c4cnoc4)c(Cl)ccc23)nc(OC)c1OCC(F)F` [Example 118, 6-chloro-N-[5-(2,2-difluoroethoxy)-4,6-dimethoxy-pyrimidin-2-yl]-7-isoxazol-4-yl-1H-indole-3-sulfonamide], the IC50 came to 63 nM.

On to `COc1nc(NS(=O)(=O)c2c[nH]c3c(-c4cnoc4)c(Cl)ccc23)nc(OC)c1OC(F)F` [Example 119, 6-chloro-N-[5-(difluoromethoxy)-4,6-dimethoxy-pyrimidin-2-yl]-7-isoxazol-4-yl-1H-indole-3-sulfonamide], for which the IC50 came to 129 nM.

On to `COc1nc(NS(=O)(=O)c2c[nH]c3c(-c4cscn4)c(Cl)ccc23)nc(OC)c1OC(F)F` [Example 120, 6-chloro-N-[5-(difluoromethoxy)-4,6-dimethoxy-pyrimidin-2-yl]-7-thiazol-4-yl-1H-indole-3-sulfonamide], for which the IC50 was 149 nM.

In the case of `COc1nc(NS(=O)(=O)c2c[nH]c3c(-c4ncc5n4CCC5)cccc23)nc(OC)c1CC(F)F` [Example 121, N-[5-(2,2-difluoroethyl)-4,6-dimethoxy-pyrimidin-2-yl]-7-(6,7-dihydro-5H-pyrrol[1,2-c]imidazol-3-yl)-1H-indole-3-sulfonamide], the IC50 worked out at 46 nM.
